# Where a name gives a salt, the structure may show the parent alone.
# Target: T1, rabbit erythrocyte Na^+ /H^+ exchanger (Oryctolagus cuniculus, UniProt P23791)
# T1 construct: determine the Na^+ influx into the erythrocytes by way of Na^+ /H^+ exchange; endogenous in cells; host or cells: erythrocytes in whole blood of cholesterol-fed New Zealand White rabbits
# Assay: Inhibition of the rabbit erythrocyte Na^+ /H^+ exchanger (amiloride-sensitive Na^+ influx, flame photometry)
# Type: cell-based, New Zealand White rabbits
# Conditions: erythrocytes of cholesterol-fed rabbits; pH 7.4, 37° C., hyperosmolar salt/sucrose medium
# Excerpt: Inhibition of the rabbit erythrocyte Na^+ /H^+ exchanger New Zealand White rabbits (Ivanovas) were given a standard diet containing 2% cholesterol for six weeks in order to activate the Na^+ /H^+ exchange and thereby render it possible to use flame photometry to determine the Na^+ influx into the erythrocytes by way of Na^+ /H^+ exchange. The blood was withdrawn from the aural arteries and rendered incoagulable by adding 25 IU of potassium heparin. One part of each sample was used for determining the hematocrit in duplicate by means of centrifugation. Aliquots of in each case 100 μl were used for measuring the initial Na^+ content of the erythrocytes.
# In order to determine the amiloride-sensitive sodium influx, 100 μl of each blood sample were in each case incubated, at pH 7.4 and 37° C., in 5 ml of a hyperosmolar salt/sucrose medium (mmol/l: 140 NaCl, 3 KCl, 150 sucrose, 0.1 ouabain, 20 tris(hydroxymethyl)aminomethane). After that, the erythrocytes were washed three times with an ice-cold solution of MgCl2 /ouabain (mmol/l: 112 MgCl2, 0.1 ouabain) and hemolyzed in 2.0 ml of distilled water. The intracellular sodium content was determined by flame photometry.
# The net influx of Na^+ was calculated from the difference between the initial sodium values and the sodium content of the erythrocytes after incubation. The amiloride-inhibitable sodium influx was obtained from the difference in the sodium content of the erythrocytes after incubating with and without 3×10^-4 mol/l amiloride. The same procedure was adopted in the case of the novel compounds.
# T1 sequence (P23791 whole entry): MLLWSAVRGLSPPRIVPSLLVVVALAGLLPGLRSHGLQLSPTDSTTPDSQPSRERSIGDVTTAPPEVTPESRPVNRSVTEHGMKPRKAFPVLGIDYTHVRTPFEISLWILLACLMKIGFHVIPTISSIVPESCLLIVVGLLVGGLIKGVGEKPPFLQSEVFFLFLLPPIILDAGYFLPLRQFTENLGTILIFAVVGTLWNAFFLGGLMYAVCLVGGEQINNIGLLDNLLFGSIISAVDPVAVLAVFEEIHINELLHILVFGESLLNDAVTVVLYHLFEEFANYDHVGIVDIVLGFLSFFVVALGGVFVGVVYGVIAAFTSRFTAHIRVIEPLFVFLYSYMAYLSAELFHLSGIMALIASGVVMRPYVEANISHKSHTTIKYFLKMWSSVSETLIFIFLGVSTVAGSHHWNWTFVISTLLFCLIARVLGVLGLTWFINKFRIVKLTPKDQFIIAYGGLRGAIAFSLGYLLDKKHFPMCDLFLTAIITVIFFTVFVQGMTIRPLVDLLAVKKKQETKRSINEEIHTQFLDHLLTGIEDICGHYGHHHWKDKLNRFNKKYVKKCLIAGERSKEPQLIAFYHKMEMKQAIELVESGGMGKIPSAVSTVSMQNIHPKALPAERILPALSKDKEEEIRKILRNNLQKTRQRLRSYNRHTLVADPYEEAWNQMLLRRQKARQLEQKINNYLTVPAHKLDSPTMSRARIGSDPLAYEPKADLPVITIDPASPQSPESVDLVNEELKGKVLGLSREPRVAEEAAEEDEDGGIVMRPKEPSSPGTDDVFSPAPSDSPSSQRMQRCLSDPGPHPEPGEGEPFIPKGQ
smiles,measurement,value
"NC(N)=NC(=O)c1ccc(O)cc1Cl [Example 1, 2-Chloro4-hydroxybenzoylguanidine hydrochloride]",IC50,4000 nM
"NC(N)=NC(=O)c1cc(I)c(O)cc1Cl [Example 2, 2-Chloro-4-hydroxy-5-iodobenzoylguanidine hydrochloride]",IC50,240 nM
"NC(N)=NC(=O)c1cc(C(F)(F)F)c(O)cc1Cl [Example 4, 2-Chloro4-hydroxy-5-trifluoromethylbenzoylguanidine hydrochloride]",IC50,140 nM
"NC(N)=NC(=O)c1cc(I)c(O)c(I)c1Cl [Example 3, 2-Chloro4-hydroxy-3,5-diiodobenzoylguanidine hydrochloride]",IC50,100 nM

# Reference: US6262123A, “Ortho-substituted benzoylguanidines, process for their preparation, their use as a medicament or diagnostic, and medicament comprising them” (Aventis Pharma Deutschland GmbH, priority 1996, dated 2001)
